PMC11420952, “A Chemical Approach to Assess the Impact of Post-translational Modification on MHC Peptide Binding and Effector Cell Engagement” (ACS Chemical Biology, 2024)
Where no end group is shown, it is not given here.

Target: T1, H-2K^b (Mus musculus, UniProt P01901)
T1 construct: endogenous in cells; host or cells: RMA-S cells (TAP-deficient)
T1 sequence (P01901 22-369): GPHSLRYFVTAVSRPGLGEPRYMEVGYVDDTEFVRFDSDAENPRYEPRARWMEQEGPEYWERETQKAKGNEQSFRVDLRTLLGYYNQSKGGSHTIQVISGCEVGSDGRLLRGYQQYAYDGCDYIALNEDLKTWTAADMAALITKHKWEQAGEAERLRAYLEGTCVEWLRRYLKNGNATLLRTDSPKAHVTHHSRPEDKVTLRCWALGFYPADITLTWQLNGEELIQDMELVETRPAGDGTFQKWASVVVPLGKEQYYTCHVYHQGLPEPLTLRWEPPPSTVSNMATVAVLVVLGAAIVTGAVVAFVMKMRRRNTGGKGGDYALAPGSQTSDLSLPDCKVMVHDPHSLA
T1 sequence (P01887 21-119 partner): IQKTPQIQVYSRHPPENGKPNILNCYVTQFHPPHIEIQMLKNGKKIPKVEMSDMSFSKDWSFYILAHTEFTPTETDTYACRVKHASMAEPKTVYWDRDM
Test: cell-based
Details: sarsWT concentration scan; 1 h 26 °C then 6 h 37 °C; APC anti-mouse H-2K^b antibody, flow cytometry; Figure S2, mean ± SD n = 3; read-out: EC50 of pMHC stabilization on RMA-S cells

Q: ESIVRFPNI [sarsWT] was tested. Which EC50 did it give?
A: 1700 nM
